“And” between values parts separate entries of the source, which are not always exact repeats. Equal values may be shown once.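 These data come from cells grown in 96-well plates and exposed to compound for 48 hours at five concentrations. GI50 = concentration required for 50% inhibition of growth. Definition used: TGI = concentration required for complete inhibition of growth.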
Experiments:
Experiment in all cases: inhibition of tumour cell growth, NCI panel, 48 h
SNB-78 CNS = tested on: SNB-78 CNS
XF 498 CNS = tested on: XF 498 CNS
DMS 114 small cell lung = tested on: DMS 114 small cell lung
LXFL 529 NSCLC = tested on: LXFL 529 NSCLC
M19-MEL melanoma = tested on: M19-MEL melanoma
HS 578T breast = tested on: HS 578T breast
MDA-MB-435 = tested on: MDA-MB-435
DU-145 prostate = tested on: DU-145 prostate
PC-3 prostate = tested on: PC-3 prostate
NCI/ADR-RES ovarian = tested on: NCI/ADR-RES ovarian

| Structure (SMILES) | TGI (SNB-78 CNS) [µM] | TGI (XF 498 CNS) [µM] | TGI (DMS 114 small cell lung) [µM] | TGI (LXFL 529 NSCLC) [µM] | TGI (M19-MEL melanoma) [µM] | other results |
| --- | --- | --- | --- | --- | --- | --- |
| CC(C)C1(O)C(c2ccccc2)=C(c2ccccc2)C(c2ccccc2)=C1c1ccccc1 | > 100 | 14.2 | 11.8 | 51.9 |  |  |
| O=C(Nc1ccc(Cl)cc1Cl)C(=O)C(C(=O)c1ccc2ccccc2c1)C1OC(=O)c2ccccc21 (stereo unspecified) | 78.4 |  | 46.2 | 17.6 | 30.3 |  |
| COC(=O)C1C(O)CC(c2ccccn2)N(Cc2ccccc2)C1c1ccccn1 (stereo unspecified) | > 100 |  | > 100 | > 100 | > 100 |  |
| COC1=CC(=O)C2C(C1=O)[C@@H]1c3ccccc3C[C@H]21 (stereo partly specified) | > 100 | > 100 |  |  | > 100 |  |
| O=C(O)COc1ccc(O)c2c1C(=O)CCCC2=O | > 100 | > 100 | > 100 | > 100 | > 100 |  |
| OCCCOC(c1ccccc1)(c1ccccc1)c1ccccc1 | > 100 | > 100 | > 100 | > 100 | > 100 |  |
| CC1OC(OCC2OC(Oc3c(-c4ccc(O)cc4)oc4cc(O)cc(O)c4c3=O)C(OC3OC(C)C(O)C(O)C3O)C(O)C2O)C(O)C(O)C1O (stereo unspecified) | > 100 | > 100 | > 77.4 | > 100 | > 100 |  |
| CC1CCP(=O)(c2ccccc2)c2ccccc21 (stereo unspecified) | > 100 |  | > 100 | > 100 | 58.5 |  |
| CC(=O)NNc1nc(C)c(C(=O)NNC(=O)C(=O)Nc2c(C)cccc2C)s1 | > 100 |  |  | > 100 | 79.7 |  |
| CCCCc1c2c(nc3c1CCc1cc4cc5c(nc4nc1-3)-c1nc3c(c(CCCC)c1CC5)CCCC3)CCCC2 | > 100 |  | 88 | > 100 | > 100 |  |
| COc1cc(/C=C\c2ccc(C)cc2)cc(OC)c1OC |  |  | 20.8 | 46.1 | > 100 | GI50 (HS 578T breast): 0.0358 µM; TGI (MDA-MB-435): 0.0672 µM; TGI (DU-145 prostate): 0.0843 µM; GI50 (PC-3 prostate): 0.0173 µM; TGI (PC-3 prostate): > 100 µM; TGI (NCI/ADR-RES ovarian): 0.111 µM and 0.158 µM; GI50 (M19-MEL melanoma): 0.0127 µM |
| COc1cc(/C=C\c2ccccc2)cc(OC)c1OC | > 89.8 | 23.7 | > 28 | > 68.1 | > 100 |  |
| CC(=O)N[C@@H]1C(O)CN2C(=O)C(=O)O[C@H](C(O)CO)[C@@H]12 (stereo partly specified) | > 100 | > 100 | > 100 | > 100 | > 100 |  |
| Cn1nc(-c2ccccc2)c(C(=O)/C=C/c2ccc(F)cc2)c(N2CCCCC2)c1=O |  | 60.2 | 17.1 | 20.7 | 35.3 |  |
| CCCNCCCC(NC(C)=O)C(=O)NCc1ccccc1 (stereo unspecified) | > 100 | > 100 | > 100 | > 100 | > 100 |  |
| CCOC(=O)/C(O)=C/c1cc(OC)cc(=O)o1 | > 100 |  | > 100 | > 100 | > 100 |  |
| COc1ccccc1N=C(N)N/N=C/c1c[nH]c2ccccc12 | 25.1 | 16.9 | 15.5 | 13.1 | 24.7 |  |
| NCCCOCC(=O)O | > 100 |  | > 100 | > 100 | > 100 |  |
| Nc1nc2c(c(=O)[nH]1)NC(CO)CN2 (stereo unspecified) |  | > 100 | > 100 |  | > 100 |  |
| CN(C)c1ccc([O-])cc1.CN(C)c1ccc([O-])cc1.CN(C)c1ccc([O-])cc1.CN(C)c1ccc([O-])cc1.[Ti+4] | > 100 | > 100 | > 100 | > 100 | > 100 | GI50 (SNB-78 CNS): > 100 µM; GI50 (XF 498 CNS): > 100 µM; GI50 (M19-MEL melanoma): > 100 µM; GI50 (DMS 114 small cell lung): 50.7 µM; GI50 (LXFL 529 NSCLC): 25.9 µM |
| CC1CC#CCOC(=O)CCCC1=O (stereo unspecified) | > 100 | > 100 | > 100 | > 100 | > 100 |  |
| COc1ccccc1/C=C1\CCC(CCN(C)C)(C2=CCCC2)C1=O (stereo unspecified) | 65.9 | 31.7 | 34.2 | 29.6 | 31.7 |  |

From PubChem BioAssay (NCI)
